Legend:
Assay in all cases: Kinase selectivity, % remaining activity
Assay type in all cases: biochemical
Conditions in all cases: 10 μM compound, 10 μM ATP, duplicate
CK1g3 = CK1g3 (Homo sapiens, UniProt Q9Y6M4)
Protocol: (§1) A two-tier strategy to determine the selectivity of compound A was applied: first, the compound was tested at a single concentration (in duplicate) to determine the %-remaining activity of the target kinase. Subsequently, the IC50 of compound A and comparative compounds for casein kinase 1 delta were determined.
(§2) Compounds were tested in single dose duplicate mode at a concentration of 10 μM (in DMSO) and reactions were carried out at 10 μM ATP, Table 3 reports the % of remaining activity (relative to DMSO).

FGFR1 = FGFR1 (Homo sapiens, UniProt P11362)
Protocol: as §1, §2

ALK5/TGFBR1 = target: T1, ALK5/TGFBR1 (Homo sapiens, UniProt P36897)
T1 sequence (P36897 34-503): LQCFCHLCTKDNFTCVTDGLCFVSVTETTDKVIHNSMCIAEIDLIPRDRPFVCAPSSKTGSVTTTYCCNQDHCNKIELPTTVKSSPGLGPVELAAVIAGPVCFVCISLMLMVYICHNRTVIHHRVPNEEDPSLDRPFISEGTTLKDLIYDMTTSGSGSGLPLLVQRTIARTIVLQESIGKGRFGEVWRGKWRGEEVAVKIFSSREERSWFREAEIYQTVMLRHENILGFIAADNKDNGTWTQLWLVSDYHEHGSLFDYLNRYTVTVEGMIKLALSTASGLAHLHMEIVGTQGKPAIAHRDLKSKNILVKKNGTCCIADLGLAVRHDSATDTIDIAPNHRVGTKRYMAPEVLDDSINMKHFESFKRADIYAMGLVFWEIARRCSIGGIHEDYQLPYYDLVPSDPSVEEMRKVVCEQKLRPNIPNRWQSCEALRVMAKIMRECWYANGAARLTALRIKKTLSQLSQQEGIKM
Protocol: as §1, §2

JNK2 = JNK2 (Homo sapiens, UniProt P45984)
Protocol: as §1, §2

CK1g1 = CK1g1 (Homo sapiens, UniProt Q9HCP0)
Protocol: as §1, §2

RIPK2 = RIPK2 (Homo sapiens, UniProt O43353)
Protocol: as §1, §2

ABL2/ARG = ABL2/ARG (Homo sapiens, UniProt P42684)
Protocol: as §1, §2

P38a/MAPK14 = P38a/MAPK14 (Homo sapiens, UniProt Q16539)
Protocol: as §1, §2

CDK5/p25 = CDK5/p25 (Homo sapiens, UniProt Q00535)
Protocol: as §1, §2

YES/YES1 = YES/YES1 (Homo sapiens, UniProt P07947)
Protocol: as §1, §2

GSK3B = GSK3B (Homo sapiens, UniProt P49841)
Protocol: as §1, §2

EGFR = EGFR (Homo sapiens, UniProt P00533)
Protocol: as §1, §2

CLK2 = CLK2 (Homo sapiens, UniProt P49760)
Protocol: as §1, §2

PKA = PKA (Homo sapiens, UniProt P17612)
Protocol: as §1, §2

PDK1/PDPK1 = target: T2, PDK1/PDPK1 (Homo sapiens, UniProt O15530)
T2 sequence (O15530 1-556): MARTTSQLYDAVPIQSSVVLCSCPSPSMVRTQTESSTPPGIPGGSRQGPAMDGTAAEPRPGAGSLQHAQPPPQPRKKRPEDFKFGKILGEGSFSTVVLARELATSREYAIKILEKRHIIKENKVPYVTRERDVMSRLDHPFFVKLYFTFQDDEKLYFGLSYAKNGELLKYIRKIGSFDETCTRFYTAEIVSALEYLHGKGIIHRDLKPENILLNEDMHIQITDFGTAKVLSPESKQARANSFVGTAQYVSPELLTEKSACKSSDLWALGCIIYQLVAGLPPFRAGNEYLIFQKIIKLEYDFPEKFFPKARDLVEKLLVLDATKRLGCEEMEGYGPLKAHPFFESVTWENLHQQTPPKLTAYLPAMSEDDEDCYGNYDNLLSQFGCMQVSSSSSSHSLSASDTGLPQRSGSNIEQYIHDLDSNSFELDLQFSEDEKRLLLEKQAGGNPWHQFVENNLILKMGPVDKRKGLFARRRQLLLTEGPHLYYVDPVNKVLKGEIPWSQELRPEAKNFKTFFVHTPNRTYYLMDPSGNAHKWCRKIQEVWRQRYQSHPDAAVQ
Protocol: as §1, §2

CK1e = CK1e (Homo sapiens, UniProt P49674)
Protocol: as §1, §2

PIM3 = PIM3 (Homo sapiens, UniProt Q86V86)
Protocol: as §1, §2

CK1g2 = CK1g2 (Homo sapiens, UniProt P78368)
Protocol: as §1, §2

PKCb2 = PKCb2 (Homo sapiens, UniProt P05771)
Protocol: as §1, §2

MSK1/RPS6KA5 = MSK1/RPS6KA5 (Homo sapiens, UniProt O75582)
Protocol: as §1, §2

TNIK = TNIK (Homo sapiens, UniProt Q9UKE5)
Protocol: as §1, §2

[1] = read-out: % of remaining activity (relative to DMSO)

FGFR1, sequence (P11362 22-822): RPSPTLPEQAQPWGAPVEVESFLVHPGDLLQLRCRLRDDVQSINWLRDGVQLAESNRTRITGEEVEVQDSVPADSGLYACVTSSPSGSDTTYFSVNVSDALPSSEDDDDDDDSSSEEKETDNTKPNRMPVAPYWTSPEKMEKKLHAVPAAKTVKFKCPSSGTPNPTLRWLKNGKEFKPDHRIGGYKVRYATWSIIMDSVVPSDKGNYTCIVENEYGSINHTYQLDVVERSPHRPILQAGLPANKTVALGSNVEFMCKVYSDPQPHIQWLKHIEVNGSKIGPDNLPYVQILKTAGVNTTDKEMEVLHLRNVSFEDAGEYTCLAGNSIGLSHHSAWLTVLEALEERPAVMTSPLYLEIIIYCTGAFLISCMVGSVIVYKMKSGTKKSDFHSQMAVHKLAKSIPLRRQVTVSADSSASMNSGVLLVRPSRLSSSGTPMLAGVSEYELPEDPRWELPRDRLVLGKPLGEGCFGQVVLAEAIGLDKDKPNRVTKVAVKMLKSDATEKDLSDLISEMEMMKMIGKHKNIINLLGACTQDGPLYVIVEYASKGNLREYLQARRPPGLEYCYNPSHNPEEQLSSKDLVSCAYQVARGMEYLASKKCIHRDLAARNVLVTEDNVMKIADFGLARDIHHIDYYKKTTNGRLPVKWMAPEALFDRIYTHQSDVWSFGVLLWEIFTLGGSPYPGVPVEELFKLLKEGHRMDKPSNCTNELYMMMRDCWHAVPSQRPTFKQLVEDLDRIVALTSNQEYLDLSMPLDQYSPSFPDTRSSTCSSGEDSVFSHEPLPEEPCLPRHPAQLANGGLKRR
PKCb2, sequence (P05771 1-673 isoform P05771-2): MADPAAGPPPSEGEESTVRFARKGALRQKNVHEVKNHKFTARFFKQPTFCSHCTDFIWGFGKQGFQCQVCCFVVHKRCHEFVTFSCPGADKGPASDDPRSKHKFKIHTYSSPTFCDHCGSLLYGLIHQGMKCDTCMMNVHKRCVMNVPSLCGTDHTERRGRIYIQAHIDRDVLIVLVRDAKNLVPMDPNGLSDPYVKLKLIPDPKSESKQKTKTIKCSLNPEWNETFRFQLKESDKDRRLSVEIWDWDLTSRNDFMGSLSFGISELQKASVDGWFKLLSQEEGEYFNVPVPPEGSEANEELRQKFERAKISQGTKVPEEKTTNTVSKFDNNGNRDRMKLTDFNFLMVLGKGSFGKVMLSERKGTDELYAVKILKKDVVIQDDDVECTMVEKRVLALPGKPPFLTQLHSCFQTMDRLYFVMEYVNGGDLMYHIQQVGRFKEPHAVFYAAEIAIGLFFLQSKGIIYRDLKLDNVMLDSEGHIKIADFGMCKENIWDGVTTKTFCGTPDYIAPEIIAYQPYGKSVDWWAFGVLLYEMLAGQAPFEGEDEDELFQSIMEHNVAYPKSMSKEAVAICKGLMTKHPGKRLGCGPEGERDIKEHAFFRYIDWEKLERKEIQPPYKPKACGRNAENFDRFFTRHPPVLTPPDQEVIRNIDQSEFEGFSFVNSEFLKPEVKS
ABL2/ARG, sequence (P42684 whole entry): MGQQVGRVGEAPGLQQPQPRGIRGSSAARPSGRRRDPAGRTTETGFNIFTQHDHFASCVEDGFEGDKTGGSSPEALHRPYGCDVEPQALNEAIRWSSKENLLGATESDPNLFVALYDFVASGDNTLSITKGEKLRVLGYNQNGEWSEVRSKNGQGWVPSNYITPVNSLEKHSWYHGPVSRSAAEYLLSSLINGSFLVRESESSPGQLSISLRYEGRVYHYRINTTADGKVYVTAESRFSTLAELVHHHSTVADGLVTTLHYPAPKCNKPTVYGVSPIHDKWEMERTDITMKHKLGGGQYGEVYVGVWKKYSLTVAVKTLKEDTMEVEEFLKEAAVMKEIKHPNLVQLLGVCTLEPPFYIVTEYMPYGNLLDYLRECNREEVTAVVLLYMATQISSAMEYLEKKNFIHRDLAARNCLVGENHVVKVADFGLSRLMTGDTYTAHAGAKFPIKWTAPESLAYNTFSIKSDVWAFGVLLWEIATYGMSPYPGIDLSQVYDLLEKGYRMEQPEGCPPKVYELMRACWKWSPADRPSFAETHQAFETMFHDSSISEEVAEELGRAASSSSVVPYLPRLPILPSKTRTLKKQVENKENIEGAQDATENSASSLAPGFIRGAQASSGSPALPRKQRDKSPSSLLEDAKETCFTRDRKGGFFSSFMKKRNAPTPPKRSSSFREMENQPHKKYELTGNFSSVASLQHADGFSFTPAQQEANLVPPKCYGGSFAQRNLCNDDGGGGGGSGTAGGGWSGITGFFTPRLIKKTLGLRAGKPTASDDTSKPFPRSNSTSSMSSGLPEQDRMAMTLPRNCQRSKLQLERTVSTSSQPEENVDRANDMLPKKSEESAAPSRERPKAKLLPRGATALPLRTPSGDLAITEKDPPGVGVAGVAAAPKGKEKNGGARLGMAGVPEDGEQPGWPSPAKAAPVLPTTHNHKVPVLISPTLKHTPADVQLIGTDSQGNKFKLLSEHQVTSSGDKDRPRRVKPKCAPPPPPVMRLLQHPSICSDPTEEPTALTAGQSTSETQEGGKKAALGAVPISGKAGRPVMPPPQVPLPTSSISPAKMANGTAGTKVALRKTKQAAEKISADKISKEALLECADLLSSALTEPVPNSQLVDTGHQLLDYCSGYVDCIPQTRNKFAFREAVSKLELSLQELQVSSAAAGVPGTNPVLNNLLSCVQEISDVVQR
CLK2, sequence (P49760 whole entry): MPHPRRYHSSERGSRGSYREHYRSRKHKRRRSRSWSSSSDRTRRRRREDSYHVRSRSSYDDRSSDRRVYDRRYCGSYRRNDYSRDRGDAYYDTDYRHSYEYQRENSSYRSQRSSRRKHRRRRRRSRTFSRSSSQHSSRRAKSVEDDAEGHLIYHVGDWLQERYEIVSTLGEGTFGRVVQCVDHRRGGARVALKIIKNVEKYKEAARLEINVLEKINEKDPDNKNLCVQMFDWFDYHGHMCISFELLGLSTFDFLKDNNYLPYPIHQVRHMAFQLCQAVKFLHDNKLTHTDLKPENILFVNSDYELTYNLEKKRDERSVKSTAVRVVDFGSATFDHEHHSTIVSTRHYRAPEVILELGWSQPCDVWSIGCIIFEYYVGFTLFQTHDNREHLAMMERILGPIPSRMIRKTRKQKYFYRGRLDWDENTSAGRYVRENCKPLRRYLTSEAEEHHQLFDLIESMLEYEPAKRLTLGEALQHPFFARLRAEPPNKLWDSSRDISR
JNK2, sequence (P45984 whole entry): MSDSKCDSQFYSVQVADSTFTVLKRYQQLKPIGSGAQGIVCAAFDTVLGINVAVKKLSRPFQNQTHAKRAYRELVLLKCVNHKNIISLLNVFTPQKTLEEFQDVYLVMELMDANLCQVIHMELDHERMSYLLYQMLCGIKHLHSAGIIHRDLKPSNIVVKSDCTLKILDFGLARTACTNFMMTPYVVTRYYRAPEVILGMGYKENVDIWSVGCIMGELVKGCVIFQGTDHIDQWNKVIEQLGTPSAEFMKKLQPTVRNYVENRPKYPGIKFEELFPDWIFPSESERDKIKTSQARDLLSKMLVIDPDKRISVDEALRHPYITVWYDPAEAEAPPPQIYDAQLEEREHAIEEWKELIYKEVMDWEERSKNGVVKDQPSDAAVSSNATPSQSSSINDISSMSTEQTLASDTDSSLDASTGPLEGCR
RIPK2, sequence (O43353 whole entry): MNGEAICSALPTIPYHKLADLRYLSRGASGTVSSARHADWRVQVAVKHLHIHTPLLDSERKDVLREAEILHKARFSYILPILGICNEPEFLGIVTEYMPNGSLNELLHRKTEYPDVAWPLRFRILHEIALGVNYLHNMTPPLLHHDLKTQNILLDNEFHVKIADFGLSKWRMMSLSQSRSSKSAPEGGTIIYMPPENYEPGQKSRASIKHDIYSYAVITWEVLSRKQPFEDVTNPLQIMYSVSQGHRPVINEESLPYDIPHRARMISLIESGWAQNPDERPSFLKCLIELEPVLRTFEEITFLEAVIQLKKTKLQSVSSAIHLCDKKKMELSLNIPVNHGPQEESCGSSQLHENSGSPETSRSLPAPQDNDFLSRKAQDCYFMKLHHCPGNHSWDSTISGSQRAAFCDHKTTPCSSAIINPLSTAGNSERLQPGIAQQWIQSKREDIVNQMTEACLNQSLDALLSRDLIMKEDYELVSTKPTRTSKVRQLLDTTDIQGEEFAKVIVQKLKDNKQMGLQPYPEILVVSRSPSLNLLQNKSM
CK1g3, sequence (Q9Y6M4 whole entry): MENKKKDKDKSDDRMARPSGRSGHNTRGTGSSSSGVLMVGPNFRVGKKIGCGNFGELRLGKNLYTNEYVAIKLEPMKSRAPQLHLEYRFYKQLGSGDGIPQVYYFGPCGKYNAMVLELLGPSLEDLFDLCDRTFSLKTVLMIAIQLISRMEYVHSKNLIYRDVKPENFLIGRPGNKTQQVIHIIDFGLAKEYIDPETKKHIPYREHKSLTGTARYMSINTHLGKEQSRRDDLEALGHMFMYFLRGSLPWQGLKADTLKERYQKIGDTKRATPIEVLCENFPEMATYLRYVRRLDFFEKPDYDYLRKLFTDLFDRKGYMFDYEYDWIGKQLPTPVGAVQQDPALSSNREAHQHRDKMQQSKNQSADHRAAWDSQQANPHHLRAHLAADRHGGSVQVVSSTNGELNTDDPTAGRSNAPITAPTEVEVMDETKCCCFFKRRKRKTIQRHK

Nc1ncc(-c2nc3ccccc3o2)c(-c2ccncc2)n1 [Comparative Compound 324, 5-(1,3-benzoxazol-2-yl)-4-(pyridine-4-yl)pyrimidin-2-amine]
% of remaining activity (relative to DMSO) (CK1g3; listed as Cmp 324): 62.63% | remaining activity at 10 µM (CK1g3; [1]): 69.9% | % of remaining activity (relative to DMSO) (FGFR1; listed as Cmp 324): 108.45% | remaining activity at 10 µM (FGFR1; [1]): 104% | % of remaining activity (relative to DMSO) (ALK5/TGFBR1; listed as Cmp 324): 101.71% | remaining activity at 10 µM (ALK5/TGFBR1; [1]): 105% | % of remaining activity (relative to DMSO) (JNK2; listed as Cmp 324): 91.75% | remaining activity at 10 µM (JNK2; [1]): 95.1% | % of remaining activity (relative to DMSO) (CK1g1; listed as Cmp 324): 92.69% | remaining activity at 10 µM (CK1g1; [1]): 99% | % of remaining activity (relative to DMSO) (RIPK2; listed as Cmp 324): 92.78% | remaining activity at 10 µM (RIPK2; [1]): 92.2% | % of remaining activity (relative to DMSO) (ABL2/ARG; listed as Cmp 324): 96.78% | remaining activity at 10 µM (ABL2/ARG; [1]): 101% | % of remaining activity (relative to DMSO) (P38a/MAPK14; listed as Cmp 324): 48.46% | remaining activity at 10 µM (P38a/MAPK14; [1]): 53.9% | % of remaining activity (relative to DMSO) (CDK5/p25; listed as Cmp 324): 97.13% | remaining activity at 10 µM (CDK5/p25; [1]): 87.7% | % of remaining activity (relative to DMSO) (YES/YES1; listed as Cmp 324): 95.22% | remaining activity at 10 µM (YES/YES1; [1]): 108% | % of remaining activity (relative to DMSO) (GSK3B; listed as Cmp 324): 80.19% | remaining activity at 10 µM (GSK3B; [1]): 91.3% | % of remaining activity (relative to DMSO) (EGFR; listed as Cmp 324): 79.83% | remaining activity at 10 µM (EGFR; [1]): 83.8% | % of remaining activity (relative to DMSO) (CLK2; listed as Cmp 324): 92.16% | remaining activity at 10 µM (CLK2; [1]): 96.2% | % of remaining activity (relative to DMSO) (PKA; listed as Cmp 324): 90.27% | remaining activity at 10 µM (PKA; [1]): 90.8% | % of remaining activity (relative to DMSO) (PDK1/PDPK1; listed as Cmp 324): 104.88% | remaining activity at 10 µM (PDK1/PDPK1; [1]): 105% | % of remaining activity (relative to DMSO) (CK1e; listed as Cmp 324): 24.86% | remaining activity at 10 µM (CK1e; [1]): 28.2% | % of remaining activity (relative to DMSO) (PIM3; listed as Cmp 324): 95.35% | remaining activity at 10 µM (PIM3; [1]): 100% | % of remaining activity (relative to DMSO) (CK1g2; listed as Cmp 324): 58.69% | remaining activity at 10 µM (CK1g2; [1]): 58% | % of remaining activity (relative to DMSO) (PKCb2; listed as Cmp 324): 103.51% | remaining activity at 10 µM (PKCb2; [1]): 101% | % of remaining activity (relative to DMSO) (MSK1/RPS6KA5; listed as Cmp 324): 94.78% | remaining activity at 10 µM (MSK1/RPS6KA5; [1]): 81.1% | % of remaining activity (relative to DMSO) (TNIK; listed as Cmp 324): 65.72% | remaining activity at 10 µM (TNIK; [1]): 74.6%
